Reference: US20260216174A1, “TREATMENT OF ER+ BREAST CANCER COMPRISING HOMOLOGOUS RECOMBINATION DEFICIENCY USING PARG INHIBITOR” (IDEAYA BIOSCIENCES, INC., priority 2023, published 2026)
Values belong to the compound of their own block, whether it stands above or below them.

Key:
AU565 = test: Cellular antiproliferative response, Assay 2 (nuclear dye intensity); assay type: cell-based; settings: Homo sapiens, 240 h; AU565, HR mutant CHEK2, Assay 2, 10-day incubation; read-out: Log10 (IC50) (converted)
Experimental: (§1) Compound A was tested in a cell line panel. Cell lines were grown in RPMI 1640, 10% FBS, 2 mM L-alanyl-L-glutamine, 1 mM Na pyruvate, or a special medium. Cells were seeded into 384-well plates and incubated in a humidified atmosphere of 5% CO2 at 37° C. The following day, Compound A was added by serial dilution in half-log steps from the highest test concentration of 30 μM and assayed over ten concentrations. A time zero untreated cell plate was also generated. At seven days post-seeding, the growth media were replaced, and the plates were re-dosed with the test compound. After a 10-day incubation period, cells were fixed and stained with a fluorescent nuclear dye. Automated fluorescence microscopy was carried out using a Molecular Devices ImageXpress Micro XL high-content imager, and images were collected with a 4× objective. 16-bit TIFF images were acquired and analyzed with MetaXpress 5.1.0.41 software.
(§2) Cell proliferation effects of Compound A was measured using the fluorescent intensity of the incorporated nuclear dye as a percent of the control (POC), where POC=(Ix/I0)×100. Ix=nuclear intensity at concentration x and I0=average nuclear intensity of the untreated vehicle wells. Cellular IC50 was calculated using nonlinear regression to a sigmoidal single-site dose response model. Curve fitting, calculations, and report generation was performed using a custom data reduction engine and MathIQ based software (AIM).

BT-474 = test: as above; assay type: cell-based; settings: Homo sapiens, 240 h; BT-474, HR mutant BRCA2, Assay 2, 10-day incubation; read-out: Log10 (IC50) (converted)
Experimental: as §1, §2

CAL-51 = test: as above; assay type: cell-based; settings: Homo sapiens, 240 h; CAL-51, HR mutant BRCA2, CHEK1, Assay 2, 10-day incubation; read-out: Log10 (IC50) (converted)
Experimental: as §1, §2

EFM-19 = test: as above; assay type: cell-based; settings: Homo sapiens, 240 h; EFM-19, HR mutant ATM, Assay 2, 10-day incubation; read-out: Log10 (IC50) (converted)
Experimental: as §1, §2

HCC1395 = test: as above; assay type: cell-based; settings: Homo sapiens, 240 h; HCC1395, HR mutant BRCA1, BRCA2, Assay 2, 10-day incubation; read-out: Log10 (IC50) (converted)
Experimental: as §1, §2

HCC1428 = test: as above; assay type: cell-based; settings: Homo sapiens, 240 h; HCC1428, HR mutant BRCA2, Assay 2, 10-day incubation; read-out: Log10 (IC50) (converted)
Experimental: as §1, §2

HCC1569 = test: as above; assay type: cell-based; settings: Homo sapiens, 240 h; HCC1569, HR mutant BRCA2, Assay 2, 10-day incubation; read-out: Log10 (IC50) (converted)
Experimental: as §1, §2

HCC1599 = test: as above; assay type: cell-based; settings: Homo sapiens, 240 h; HCC1599, HR mutant BRCA2, Assay 2, 10-day incubation; read-out: Log10 (IC50) (converted)
Experimental: as §1, §2

HCC1937 = test: as above; assay type: cell-based; settings: Homo sapiens, 240 h; HCC1937, HR mutant BRCA1, Assay 2, 10-day incubation; read-out: Log10 (IC50) (converted)
Experimental: as §1, §2

HCC1954 = test: as above; assay type: cell-based; settings: Homo sapiens, 240 h; HCC1954, HR mutant BRCA1, Assay 2, 10-day incubation; read-out: Log10 (IC50) (converted)
Experimental: as §1, §2

HCC202 = test: as above; assay type: cell-based; settings: 240 h; HCC202, HR mutant BRCA2, Assay 2, 10-day incubation; read-out: Log10 (IC50) (converted)
Experimental: as §1, §2

MDA-MB-436 = test: as above; assay type: cell-based; settings: Homo sapiens, 240 h; MDA-MB-436, HR mutant BRCA1, Assay 2, 10-day incubation; read-out: Log10 (IC50) (converted)
Experimental: as §1, §2

HCC1428 tumors = test: Cell line derived xenograft (CDX) study with HCC1428 tumors; assay type: in vivo, BALB/c nude mice
Experimental: For this xenograft, supplemental estradiol benzoate injections (40 μg/20 μl/mouse) are administered subcutaneously twice a week to BALB/c nude mice, starting one week prior to cell implantation and continuing through to the end of study. After implantation, HCC1428 tumor were allocated to treatment arms once a median tumor volume of about 181 mm^3 was reached. In Table 3A the abbreviation “p.o.” refers to oral administration and the abbreviation “QD×28” refers to administration once a day for 28 days.
Tumors were measured and mice were weighed twice a week during the experimental period. The tumor volume (mm3) was estimated using the formula: TV=a×b2/2, where “a” and “b” were the long and the short diameter of a tumor, respectively. The Tumor volumes were used to calculate tumor growth inhibition (TGI, an indicator of antitumor activity) using the formula: TGI %: (1−{T/T0/Ct/C0}/1−{C0/Ct})×100 where Tt=median tumor volume of treated at time t, T0=median tumor volume of treated at time 0, Ct=median tumor volume of control at time t and C0=median tumor volume of control at time 0.
For this xenograft, supplemental estradiol benzoate injections (40 μg/20 μl/mouse) are administered subcutaneously twice a week to BALB/c nude mice, starting one week prior to cell implantation and continuing through to the end of study. After implantation, HCC1428 tumor were allocated to treatment arms once a median tumor volume of about 181 mm^3 was reached. In Table 4A the abbreviation “p.o.” refers to oral administration and the abbreviation “QD×28” refers to administration once a day for 28 days.
Tumors were measured and mice were weighed twice a week during the experimental period. The tumor volume (mm^3) was estimated using the formula: TV=a×b2/2, where “a” and “b” were the long and the short diameter of a tumor, respectively. The Tumor volumes were used to calculate tumor growth inhibition (TGI, an indicator of antitumor activity) using the formula: TGI %: (1−{T/T0/Ct/C0}/1−{C0/Ct})×100 where Tt=median tumor volume of treated at time t, T0=median tumor volume of treated at time 0, Ct=median tumor volume of control at time t and C0=median tumor volume of control at time 0. […] At 100 mg/kg QD the mean tumor volume achieved was 116 mm3, on Day 71. The tumor growth inhibition (TGI) of these treatments compared with vehicle group on Day 28 or 71 of the treatment is summarized in Table 4B (See FIG. 3).

[1] = 30 mg/kg p.o. QD × 28, Day 28, vs vehicle

IC50 (BT-474): 847 nM | IC50 (HCC1395): 30 nM | IC50 (HCC1428): 10 nM | IC50 (HCC1569): 80 nM | IC50 (HCC1599): 1310 nM | IC50 (HCC1937): 220 nM | IC50 (HCC1954): 370 nM | IC50 (HCC202): 640 nM | IC50 (MDA-MB-436): 52.4 nM
Compound: C[C@H]1CN(c2cc(S(=O)(=O)NC3(C)CC3)cc3c2cnn3-c2nnc(C(F)F)s2)C[C@H](C)N1 [Compound A, 1-(5-(difluoromethyl)-1,3,4-thiadiazol-2-yl)-4-((3S,5S)-3,5-dimethylpiperazin-1-yl)-N-(1-methylcyclopropyl)-1H-indazole-6-sulfonamide]
IC50 (AU565): 52.3 nM | IC50 (CAL-51): 3530 nM | IC50 (EFM-19): 689 nM | TGI (%) D28 or 71 (HCC1428 tumors; 3 mg/kg p.o. QD × 28, Day 28, vs vehicle): 23% | TGI (%) D28 or 71 (HCC1428 tumors; [1]): 54% | TGI (%) D28 or 71 (HCC1428 tumors; 100 mg/kg p.o. QD × 72, Day 71, vs vehicle): 103% | mean tumor volume (HCC1428 tumors; Compound A study, 3 mg/kg QD, Day 28): 836 mm^3 | mean tumor volume (HCC1428 tumors; Compound A study, 30 mg/kg QD, Day 28): 570 mm^3 | mean tumor volume (HCC1428 tumors; Compound A study, 100 mg/kg QD, Day 71): 116 mm3

Compound: CC(C)C(=O)N1CCN(c2cc(S(=O)(=O)NC3(C#N)CC3)cc3c2cnn3-c2nnc(C(F)F)s2)C[C@H]1C [Compound B]
TGI (%) D28 (HCC1428 tumors; [1]): 81.7% | TGI (%) D28 (HCC1428 tumors; 100 mg/kg p.o. QD × 28, Day 28, vs vehicle): 89.0% | TGI (%) D28 (HCC1428 tumors; 300 mg/kg p.o. QD × 28, Day 28, vs vehicle): 94.6% | mean tumor volume (HCC1428 tumors; Compound B study, 30 mg/kg QD, Day 28): 165 mm^3 | mean tumor volume (HCC1428 tumors; Compound B study, 100 mg/kg QD, Day 28): 103 mm^3 | mean tumor volume (HCC1428 tumors; Compound B study, 300 mg/kg QD, Day 28): 50 mm^3
